US11998554B2, “Composition comprising lipoic acid and vitamin D for the prevention and the treatment of neurodegenerative diseases and peripheral neuropathies” (URIACH ITALY S.R.L., priority 2018, dated 2024)

Legend:
[1] = tested on: astrocytes; test: MTT cell viability under oxidative conditions (H2O2 pre-treatment); type: cell-based, mouse; conditions: for cell viability after post-treatment (in words): 200 μM H2O2 pre-treatment, then 50 μM LA, 100 nM vitD, 24 hours
[2] = tested on: astrocytes; test: MTT cell viability, dose- and time-dependent, physiological conditions; type: cell-based, mouse; conditions: 1440 min, 50 μM LA, 100 nM vitD
Experimental: The cultures of mouse astrocytes were prepared from male and female C57BL/6 baby mice, following a known conventional technique according to the national guidelines for the use and care of laboratory animals. Basically, within 24 hours from birth, the baby mice were euthanized and the corticals were cut, […] minced, mechanically digested and left to rest for 30 minutes at ambient temperature. The cell suspension was then centrifuged at 800 rpm (revolutions per minute) for 5 minutes. The pelleted cells were resuspended in neuronal basal medium (Sigma-Aldrich), supplemented with fetal bovine serum at 5% (FBS, Gibco), penicillin/streptomycin 1% (Sigma-Aldrich) and L-glutamine 2 mM (Sigma-Aldrich), placed in multiple wells and kept in culture for 6 days prior to the treatment. […] Cell viability was determined by measuring absorbance at 570 nm with correction at 690 nm, using a spectrometer (VICTOR X4, multi-label plate reader) and calculated by comparing the results with the control. […] Firstly, the effect depending on the concentration of LA alone (comprised between 10 μM and 100 μM) on the cell viability over 24 hours (starting from 15 minutes to 1440 minutes) was analysed, with the aim of identifying the best concentration to be used. FIG. 1(a) illustrates the time-dependent and dose-response studies (ranging from 10 μM to 100 μM) of LA measured in astrocytes.

[3] = tested on: SOD3; test: Western blot expression of SOD3 in astrocytes pre-treated with Fe^3+; type: cell-based, mouse; conditions: 300 μM Fe^3+ 6 days, then 50 μM LA or 100 nM vitD 6 more days, p<0.05
[4] = tested on: astrocytes; test: MTT cell viability in astrocytes pre-treated with Fe^3+; type: cell-based, mouse; conditions: for cell viability after post-treatment following Fe^3+ (in words): 300 μM Fe^3+ 6 days, then treatment another 6 days
[5] = tested on: p53; test: Activity of p53 (ELISA on nuclear extracts) under oxidative conditions; type: cell-based, mouse; conditions: for activity of p53 without H2O2 vs control (in words): 50 μM LA, 100 nM vitD, p<0.05; for activity of p53 after H2O2 (in words): stimulation after 200 μM H2O2
[6] = tested on: SOD3; test: Western blot expression of SOD3 under oxidative conditions; type: cell-based, mouse; conditions: post-stimulation after 200 μM H2O2
[7] = tested on: ERK/MAPK; test: ERK/MAPK activity (ELISA) in astrocytes pre-treated with Fe^3+; type: cell-based, mouse; conditions: 300 μM Fe^3+ 6 days, then treatment another 6 days, p<0.05
[8] = tested on: ERK/MAPK; test: ERK/MAPK activity (ELISA InstantOne) under oxidative conditions; type: cell-based, mouse; conditions: for ERK/MAPK activity without H2O2 (in words): 24 hours, 50 μM LA, 100 nM vitD; for ERK activity after post-treatment following H2O2 (in words): after 200 μM H2O2
[9] = tested on: p53; test: Activity of p53 (ELISA) in astrocytes pre-treated with Fe^3+; type: cell-based, mouse; conditions: 300 μM Fe^3+ 6 days, then 50 μM LA, 100 nM vitD another 6 days
[10] = tested on: PI3K-Akt; test: PI3K-Akt activity (ELISA InstantOne) under oxidative conditions; type: cell-based, mouse; conditions: for PI3K-Akt activity without H2O2 (in words): 24 hours, 50 μM LA, 100 nM vitD; for Akt activity after post-treatment following H2O2 (in words): after 200 μM H2O2
[11] = tested on: astrocytes; test: Production of ROS (superoxide anion release) under oxidative conditions; type: cell-based, mouse; conditions: for reduction of production of ROS with respect to H2O2 alone: post-treatment after 200 μM H2O2
[12] = tested on: amyloid precursor protein (APP); test: Quantification of APP (ELISA) in astrocytes pre-treated with Fe^3+; type: cell-based, mouse; conditions: for reduction of level of APP against 300 μM Fe^3+: 300 μM Fe^3+ 6 days, then 50 μM LA, 100 nM vitD another 6 days
[13] = tested on: iNOS; test: Western blot expression of iNOS under oxidative conditions; type: cell-based, mouse; conditions: post-stimulation after 200 μM H2O2
[14] = tested on: PKA; test: Western blot expression of p-PKA under oxidative conditions; type: cell-based, mouse; conditions: for expression of PKA without H2O2 (in words): 50 μM LA, 100 nM vitD; for expression of PKA after H2O2 (in words): post-stimulation after 200 μM H2O2
[15] = tested on: cytochrome C; test: Western blot expression of cytochrome C under oxidative conditions; type: cell-based, mouse; conditions: for expression of cytochrome C without H2O2 (in words): 50 μM LA, 100 nM vitD; for expression of cytochrome C after H2O2 (in words): stimulation after H2O2, p<0.05
[16] = tested on: blood-brain barrier (BBB) experimental model; test: Blood-brain barrier (BBB) experimental model permeability (astrocytes/HUVEC Transwell co-culture); conditions: 1440 min; 100 nM vitD, 50 μM LA alone
[17] = tested on: astrocytes; test: Production of ROS in astrocytes pre-treated with Fe^3+; type: cell-based, mouse; conditions: for reduction of production of ROS with respect to Fe^3+ alone: 300 μM Fe^3+ 6 days, then 50 μM LA, 100 nM vitD another 6 days
[18] = tested on: astrocytes; test: Mitochondrial membrane potential (JC-1) under oxidative conditions; type: cell-based, mouse; conditions: 50 μM LA, 100 nM vitD; for mitochondrial potential without H2O2 (in words): p<0.05; for dissipation of the mitochondrial potential after post-treatment, with respect to H2O2 alone (in words): after 200 μM H2O2
[19] = tested on: astrocytes; test: Iron quantification assay in astrocytes pre-treated with Fe^3+; type: cell-based, mouse; conditions: for reduction of accumulation of iron against Fe^3+ alone: 300 μM Fe^3+ 6 days, then 50 μM LA, 100 nM vitD another 6 days

| Structure (SMILES) | cell viability after post-treatment (in words) [1] | cell viability, maximum effect with respect to the control [2] | expression of SOD3 after Fe^3+ (in words) [3] | cell viability after post-treatment following Fe^3+ (in words) [4] | activity of p53 without H2O2 vs control (in words) [5] | activity of p53 after H2O2 (in words) [5] | expression of SOD3 with respect to 200 μM of H2O2 (in words) [6] | activation of ERK/MAPK with respect to 300 μM Fe^3+ (in words) [7] | ERK/MAPK activity without H2O2 (in words) [8] | ERK activity after post-treatment following H2O2 (in words) [8] | reduction of activation of p53 with respect to 300 μM Fe^3+ [9] | PI3K-Akt activity without H2O2 (in words) [10] | Akt activity after post-treatment following H2O2 (in words) [10] | reduction of production of ROS with respect to H2O2 alone ([11]; 50 μM LA, 100 nM vitD) | reduction of level of APP against 300 μM Fe^3+ [12] | expression of iNOS with respect to 200 μM of H2O2 (in words) [13] | expression of PKA without H2O2 (in words) [14] | expression of PKA after H2O2 (in words) [14] | expression of cytochrome C without H2O2 (in words) [15] | expression of cytochrome C after H2O2 (in words) [15] | other results |
| --- | --- | --- | --- | --- | --- | --- | --- | --- | --- | --- | --- | --- | --- | --- | --- | --- | --- | --- | --- | --- | --- |
| C=C1CC[C@H](O)C/C1=C/C=C1\CCC[C@]2(C)[C@@H]([C@H](C)CCCC(C)C)CC[C@@H]12 [vitD, cholecalciferol] | cell viability increased significantly | about 22% | reduced | cell viability leads to control values | reduction of the activity of p53 | reduced it significantly | significantly reduced | significant reduction | activating ERK and Akt mediators | nullified the effects observed previously | ~88% | activating ERK and Akt mediators | nullified the effects observed previously | ~57% | ~55% | significantly reduced | significant increase | restored the mechanism | results similar to those obtained for p53 | reduced | absorption capacity through the blood-brain barrier (basolateral volume analysis) with respect to the control [16]: about 49.5%; reduction of production of ROS with respect to Fe^3+ alone [17]: ~83%; mitochondrial potential without H2O2 (in words) [18]: significant increase of the red fluorescence; dissipation of the mitochondrial potential after post-treatment, with respect to H2O2 alone (in words) [18]: significantly inverted; reduction of accumulation of iron against Fe^3+ alone [19]: ~88% |
| O=C(O)CCCCC1CCSS1 (racemic) [LA, alpha-lipoic acid] | cell viability increased significantly | about 66% | reduced | cell viability leads to control values | reduction of the activity of p53 | reduced it significantly | significantly reduced | significant reduction | activating ERK and Akt mediators | nullified the effects observed previously | about 84% | activating ERK and Akt mediators | nullified the effects observed previously | about 43% | about 63% | significantly reduced | significant increase | restored the mechanism | results similar to those obtained for p53 | reduced | production of ROS without H2O2 (in words) ([11]; 50 μM LA, 100 nM vitD, no H2O2, p>0.05 vs control): maintaining the production of ROS below the physiological level; absorption capacity through the blood-brain barrier (basolateral volume analysis) with respect to the control [16]: ~40.5%; reduction of production of ROS with respect to Fe^3+ alone [17]: about 68%; mitochondrial potential without H2O2 (in words) [18]: significant increase of the red fluorescence; dissipation of the mitochondrial potential after post-treatment, with respect to H2O2 alone (in words) [18]: significantly inverted; reduction of accumulation of iron against Fe^3+ alone [19]: about 81% |
| [Fe+3] [Fe^3+] |  |  |  |  |  |  |  |  |  |  |  |  |  |  |  |  |  |  |  |  | reduction of cell viability with respect to the control ([4]; 300 μM Fe^3+, 6 days): about 23%; increase of level of APP with respect to the control ([12]; 300 μM Fe^3+, 6 days): about 43%; increase of production of intracellular ROS with respect to the control ([17]; 300 μM Fe^3+, 6 days): about 60%; increase of intracellular iron accumulation with respect to the control ([19]; 300 μM Fe^3+, 6 days): about 69% |
| OO [H2O2] |  |  |  |  |  |  |  |  |  |  |  |  |  |  |  |  |  |  |  |  | reduction of cell viability with respect to the control ([1]; 200 μM H2O2): 46%; reduction of activity of ERK with respect to the control ([8]; 200 μM H2O2): about 6%; reduction of activity of Akt with respect to the control ([10]; 200 μM H2O2): ~7%; increase of production of intracellular ROS with respect to the control ([11]; 200 μM stressor alone): about 30% |
